Experimental data as given in publication PMC11087268, “A folate inhibitor exploits metabolic differences in Pseudomonas aeruginosa for narrow-spectrum targeting” (Nature Microbiology, 2024).
Several values for one entry are separate records, joined by “and”; a condition that tells them apart may be missing. Equal values may be shown once. Read-outs that look alike come from different tables or passages of the source.

Legend:
P. aeruginosa = test: MIC of known DHFR inhibitors against P. aeruginosa; type: cell-based, Pseudomonas aeruginosa; conditions: strain not named
sheep red blood cells = test: Haemolysis; type: cell-based; conditions: 1 h, vs Triton X-100 100% lysis
Description: (§1) Samples were treated at 37 °C with shaking for 1 h and then centrifuged. Supernatants were collected and absorbances were measured at 405 nm in a Tecan InfiniteM200 Pro microplate reader.

P. aeruginosa PA14 [1] = test: In vivo PA14 murine thigh infection; conditions: neutropenic CD-1 mice, 24 h post infection; fluorofolin 25 mg kg^−1 subcutaneous and/or SMX 100 mg kg^−1 intraperitoneal at 1 and 12 h; one value per mouse
Description: For P. aeruginosa thigh infection model and maximum tolerated dose (MTD) studies, care and handling of female 5–6-week-old CD-1 conformed to Institutional Animal Care and Use Committee (IACUC) policies as carried out at the University of North Texas Health Science Center (Fort Worth, Texas) under UNTHSC IACUC-approved protocol nos. IACUC-2021-0003 and IACUC-2020-0039. Rodents were fed either base chow (Envigo) or base diet supplemented with 1.8 g kg^−1 thymidine (Sigma T9250) starting at 2 days before infection. All procedures were conducted in accordance with the UNTHSC IACUC-approved protocol. Animals were housed in rooms undergoing 10–15 air changes per hour. Air provided to the animal rooms was controlled for temperature and humidity and is fully monitored 24 h a day. Air pressure was balanced according to room use. Lighting was controlled in individual rooms by automatic timers with a standard 12 h on, 12 h off cycle.
Female 5–6-week-old CD-1 mice were rendered neutropenic by intraperitoneal cyclophosphamide treatment (Cytoxan) before this study. On day 0, mice were infected intramuscularly with 5.33 log c.f.u. per thigh PA14. Mice were treated subcutaneously with fluorofolin at 1 and 12 h post infection. For co-treatment, mice were treated with SMX intraperitoneally at 1 and 12 h post infection. […] In vivo efficacy was evaluated by the UNTHSC.

PA14 = test: Checkerboard assay fluorofolin / sulfamethoxazole; type: cell-based, Pseudomonas aeruginosa; conditions: PA14, Fluorofolin 0 ug/mL
Description: Cells were seeded in a similar manner as described above for MIC calculations. […] Fractional inhibitory concentrations (FICs) were calculated as [[…], where [fluorofolin] and [SMX] are the concentrations of compounds in a given well, which were divided by the concentration of drug at the MIC for each compound.

[2] = system: P. aeruginosa PA14 mexA transposon mutant; test: microbe, parasite or virus in culture; type: cell-based; conditions: Pseudomonas aeruginosa
Description: (§2) Overnight cultures were diluted 1:150 in LB broth and added to a 96-well plate. Antibiotics were serially diluted 1:2 and added to columns of the 96-well plate and grown at 37 °C with continuous shaking. Cell growth was measured using optical density at 600 nm (OD600). MIC assays were performed in either BioTek Synergy HT or Tecan InfiniteM200 Pro microplate readers.
(§3) P. aeruginosa PA14 transposon mutants were generated by the Ausubel Lab (https://pa14.mgh.harvard.edu/cgi-bin/pa14/home.cgi)[67]. The MICs of fluorofolin and TMP against strains with disrupted MexA, MexB and OprM were determined as above and compared to the parental strain. As transposon mutants in MexB were represented twice in this collection, the MIC was confirmed across both mutant strains.

[3] = system: P. aeruginosa PA14 mexB transposon mutant; test: microbe, parasite or virus in culture; type: cell-based; conditions: Pseudomonas aeruginosa
Description: as §2, §3

[4] = system: P. aeruginosa PA14 oprM transposon mutant; test: microbe, parasite or virus in culture; type: cell-based; conditions: Pseudomonas aeruginosa
Description: as §2, §3

[5] = system: Pseudomonas aeruginosa PA14; test: MIC against P. aeruginosa PA14 in LB broth; type: cell-based
Description: as §2

Haemolysis = type: cell-based, sheep; conditions: sheep, defibrinated sheep red blood cells, 1 h, vs Triton X-100 100% lysis
Description: as §1

[6] = system: P. aeruginosa PA14 folate metabolism (dUMP, AICAR, GAR); test: Metabolomics (LC–MS) of treated PA14; type: cell-based, Pseudomonas aeruginosa; conditions: PA14, 15 min
Description: Metabolites were extracted by vacuum filtering 15 ml of treated cells using 0.45 μm HNWP Millipore nylon membranes and placing the filters into an ice-cold quenching solution of 40:40:20 methanol:acetonitrile:H2O. Extracts were kept on dry ice for 1 h and centrifuged at 16,000 g for 1 h at 4 °C. The supernatant was kept at -80 °C until mass spectrometry analysis. Liquid chromatography-mass spectrometry (LC-MS) analysis of metabolites was performed on an Orbitrap Exploris 240 mass spectrometer coupled with hydrophilic interaction liquid chromatography (HILIC)[68]. […] Waters 196006724), with a gradient of solvent A (95 vol. % H2O, 5 vol. % acetonitrile, with 20 mM ammonium acetate and 20 mM ammonium hydroxide, pH 9.4) and solvent B (acetonitrile). Flow rate was 0.15 ml min^-1 and column temperature was set at 25 °C. […] Raw mass spectrometry data were converted to mzXML format by MSConvert (ProteoWizard). Pick-peaking was done on […].0.8.0, Elucidata).

P. aeruginosa PA14 [7] = type: cell-based, Pseudomonas aeruginosa; conditions: PA14, 0.25 h
Description: Overnight P. aeruginosa PA14 or E. coli lptD4213 cultures were diluted 1:100 and grown to mid exponential phase at 37 °C. Cultures were diluted 1:10 into PBS and treated with antibiotics for 15 min. P. aeruginosa PA14 was stained with TO-PRO-3 (640 nm excitation, 670/30 nm emission) to measure cell membrane integrity. E. coli lptD4213 was stained with both TO-PRO-3 and DiOC2(3) (ThermoFisher B34950) to measure cell membrane integrity and membrane potential. DiOC2(3) was evaluated as a ratio of green (488 nm excitation, 525/50 nm emission) to red (488 nm excitation, 610/20 nm emission)[66]. The LSRII flow cytometer (BD Biosciences) at the Flow Cytometry Resource Facility, Princeton University, was used to measure the fluorescent intensities of both dyes in response to antibiotic treatment. 100,000 events were recorded for each data file. Gates for permeabilization were determined using polymixin B (Sigma-Aldrich P1004) and untreated controls. Gates for depolarization were determined using carbonyl cyanide m-chlorophenyl hydrazone (CCCP) as a positive control. Data were analysed using FlowJo v.10 software.

P. aeruginosa PA14 [8] = test: Colony-forming units counting after antibiotic treatment; type: cell-based, Pseudomonas aeruginosa; conditions: 2× MIC (fluorofolin 6.2, TMP 250, polymixin B 4 μg ml^−1)
Description: P. aeruginosa PA14 overnight cultures were diluted 1:100 and grown to exponential phase (OD600 = 0.4–0.6). Cultures were diluted 1:10 and treated with antibiotic. At each time point, 150 μl of culture was removed, serial diluted 1:10 six times and plated onto LB agar plates. Plates were grown overnight at 37 °C, after which visible colonies were counted. C.f.u.s ml^−1 are reported from dilutions in which ~10–100 single colonies were visible.

[9] = 2× MIC (fluorofolin 6.3, TMP 250 μg ml^−1), one value per replicate

**Q.** What does the source list for Nc1nc(N)c2c(ccc3c2ccn3Cc2ccc(-c3ccccc3)cc2)n1 [IRS-16]?
**A.** MIC (P. aeruginosa): > 50 µg/mL; % Hemolysis, Mean (sheep red blood cells; 0.78125 ug/mL): 6.068%; % Hemolysis, Mean (sheep red blood cells; 1.5625 ug/mL): 12.9642%; % Hemolysis, Mean (sheep red blood cells; 3.125 ug/mL): 26.947%; % Hemolysis, Mean (sheep red blood cells; 6.25 ug/mL): 25.0196%; % Hemolysis, Mean (sheep red blood cells; 12.5 ug/mL): 26.9567%; % Hemolysis, Mean (sheep red blood cells; 25 ug/mL): 30.487%; % Hemolysis, Mean (sheep red blood cells; 50 ug/mL): 39.1325%

**Q.** For Cc1cc(NS(=O)(=O)c2ccc(N)cc2)no1 [SMX, Sulfamethoxazole, reference compound], which “PA14 load in thigh” value (P. aeruginosa PA14 [1]) is on record?
**A.** 8.8 log 10(CFU/ mouse) and 8.33 log 10(CFU/ mouse) and 8.57 log 10(CFU/ mouse) and 7.94 log 10(CFU/ mouse)

**Q.** What about the FIC index (PA14; SMX 625.00 ug/mL) of the same compound?
**A.** 1

**Q.** What about the FIC index (PA14; SMX 1250.00 ug/mL) of the same compound?
**A.** 2

**Q.** What does the source list for COc1cc(Cc2cnc(N)nc2N)cc(OC)c1OC [Trimethoprim, trimethoprim, reference compound]?
**A.** MIC [2]: 50 µg/mL; MIC [3]: 25 µg/mL; MIC [4]: 25 µg/mL; MIC ([5]; P. aeruginosa PA14): 125 µg/mL; MIC ([5]; Pseudomonas aeruginosa, Wildtype PA14, control for each drug stock, read-out: MIC): 125 µg/mL; hemolysis at 1 h, 0.78125 ug/mL (Haemolysis; 0.78125 ug/mL): 0.423%; hemolysis at 1 h, 1.5625 ug/mL (Haemolysis; 1.5625 ug/mL): 0.123%; hemolysis at 1 h, 3.125 ug/mL (Haemolysis; 3.125 ug/mL): 0.0766%; hemolysis at 1 h, 6.25 ug/mL (Haemolysis; 6.25 ug/mL): 1.27%; hemolysis at 1 h, 12.5 ug/mL (Haemolysis; 12.5 ug/mL): 0.258%; hemolysis at 1 h, 25 ug/mL (Haemolysis; 25 ug/mL): 0.606%; hemolysis at 1 h, 50 ug/mL (Haemolysis; 50 ug/mL): 4.08%; change of AICAR and dUMP ([6]; 2× MIC): significant upregulation; Normalized Ion Counts AICAR [6, 9]: 1099947 and 1907694 and 151411; Normalized Ion Counts GAR [6, 9]: 163607 and 121038 and 24881.8; Normalized Ion Counts dUMP [6, 9]: 2000000 and 3000000; Permeabilized (TO-PRO-3 gate) (P. aeruginosa PA14 [7]): 0.42; PA14 CFU/mL, Mean (P. aeruginosa PA14 [8]; Time 0 h): 197000 CFU/mL; PA14 CFU/mL, Mean (P. aeruginosa PA14 [8]; Time 1 h): 178000 CFU/mL; PA14 CFU/mL, Mean (P. aeruginosa PA14 [8]; Time 2 h): 187000 CFU/mL; PA14 CFU/mL, Mean (P. aeruginosa PA14 [8]; Time 4 h): 338889 CFU/mL
